For assay [1], the target named is T1, L-selectin-lg fusion protein (Homo sapiens, UniProt P14151).
T1 construct: Each selectin-lg contains the lectin domain, epidermal growth factor domain, and one (L-selectin-lg), two (P-selectin-lg) or six (E-selectin-lg) complement regulatory repeats; made in house
Description: Competition ELISA: binding of L-selectin-Ig to immobilized BSA-sLe^x. From the text: Selectin-lg fusion proteins are recombinant chimeric molecules containing extracellular regions of selectins coupled to the hinge, CH2, and CH3 regions of human IgG1 (Aruffo, A., et al., Cell, 67:35, 1991; Walz, G., et al., Science, 250:1132, 1990). Each selectin-lg contains the lectin domain, epidermal growth factor domain, and one (L-selectin-lg), two (P-selectin-lg) or six (E-selectin-lg) complement regulatory repeats of the parent molecules. DNAs encoding selectin-Ig inserted in pCDM7 allowed transient expression of recombinant proteins in COS cells as previously described (Seed, B., et al., Proc. Natl. Acad. Sci., U.S.A., 84:3365, 1987; Aruffo, A., Current Protocols In Molecular Biology, eds. Ausubel, F. M., et al, 16:13.1, Greene Publishing Associates and Wiley-lnterscience, New York, N.Y., 1992). These DNAs were also ligated into pNUT (Palmiter, R. D., et al, Cell, 50:435, 1987) for amplification and stable expression in BHK cells. The fusion proteins were affinity purified from culture media using protein A (Pierce Chemical Company, Rockford, Ill.) or protein G (Pharmacia, Piscataway, N.J.) Sepharose, as previously described (Aruffo, A., et al., Cell, 67:35, 1991; Aruffo, A., Current Protocols In Molecular Biology, eds. Ausubel, F. M., et al, supra, 1992). Competition binding ELISAs using P- and E-selectin-lg were performed essentially as described (Nelson, R. M., et al., J. Clin. […] Selectin concentrations were from 10 to 30 nM. […] To increase L-selectin binding, an assay similar to that previously described was used (Foxall, C., et al., J. Cell Biol., 117:895, 1992), in which the L-selectin-lg (10-20 nM) was allowed to form aggregates with HRP-conjugated anti-lg antibody for 30 minutes prior to addition of inositols and incubation on the BSA-sLe^x -coated plate. IC50 values were calculated by fitting binding data to the equation: fraction of maximal binding=IC50 […] using nonlinear least squares analysis software (Origin, Microcal Inc, Northampton, Mass.). InsP6 (dodecasodium salt), InsS6 (hexapotassium salt), myo-inositol 1 monophosphate (cyclohexylammonium salt), and myo-inositol were from Sigma Chemical Company (St. Louis, Mo.). Stock solutions were prepared daily in 0.9% NaCl and sterilized by 0.22 μm filtration. InsP6 solutions were adjusted at pH 7.4 with HCl.
(§1) L-, P-, or E-selectin-lg fusion proteins were incubated for 2-3 hours on microtiter plates coated with the neoglycoprotein BSA-sLe^x, the plates washed, and bound selectin-lg was detected using a peroxidase-conjugated antibody directed against the lg portion and a chromogenic substrate. To determine blocking activity, solution-phase lnsP6 (.circle-solid.), InsS6 (.largecircle.), or inositol (.box-solid.) at the indicated concentrations were added to the solutions containing selectin-Ig fusion proteins prior to transfer to microtiter plates (competition ELISA).

In the next assay the test system is inflammation. Particulars: rodent model; cited from earlier work.
For assay [2], the target named is T2, P-selectin-lg fusion protein (Homo sapiens, UniProt P16109).
T2 construct: Each selectin-lg contains the lectin domain, epidermal growth factor domain, and one (L-selectin-lg), two (P-selectin-lg) or six (E-selectin-lg) complement regulatory repeats; made in house
Description: Competition ELISA: binding of P-selectin-Ig to immobilized BSA-sLe^x.
Source text: (§2) Selectin-lg fusion proteins are recombinant chimeric molecules containing extracellular regions of selectins coupled to the hinge, CH2, and CH3 regions of human IgG1 (Aruffo, A., et al., Cell, 67:35, 1991; Walz, G., et al., Science, 250:1132, 1990). Each selectin-lg contains the lectin domain, epidermal growth factor domain, and one (L-selectin-lg), two (P-selectin-lg) or six (E-selectin-lg) complement regulatory repeats of the parent molecules. DNAs encoding selectin-Ig inserted in pCDM7 allowed transient expression of recombinant proteins in COS cells as previously described (Seed, B., et al., Proc. Natl. Acad. Sci., U.S.A., 84:3365, 1987; Aruffo, A., Current Protocols In Molecular Biology, eds. Ausubel, F. M., et al, 16:13.1, Greene Publishing Associates and Wiley-lnterscience, New York, N.Y., 1992). These DNAs were also ligated into pNUT (Palmiter, R. D., et al, Cell, 50:435, 1987) for amplification and stable expression in BHK cells. The fusion proteins were affinity purified from culture media using protein A (Pierce Chemical Company, Rockford, Ill.) or protein G (Pharmacia, Piscataway, N.J.) Sepharose, as previously described (Aruffo, A., et al., Cell, 67:35, 1991; Aruffo, A., Current Protocols In Molecular Biology, eds. Ausubel, F. M., et al, supra, 1992). Competition binding ELISAs using P- and E-selectin-lg were performed essentially as described (Nelson, R. M., et al., J. Clin. Invest., 91:1157, 1993), except that the assay buffer was 20 mM HEPES pH 7.4, 150 mM NaCl, 2 mM CaCl2, and 0.25 mM thimerosal, containing 10 mg/ml BSA, protease-free, (Miles Inc., Kankakee, Ill.). Selectin concentrations were from 10 to 30 nM. […] To increase L-selectin binding, an assay similar to that previously described was used (Foxall, C., et al., J. Cell Biol., 117:895, 1992), in which the L-selectin-lg (10-20 nM) was allowed to form aggregates with HRP-conjugated anti-lg antibody for 30 minutes prior to addition of inositols and incubation on the BSA-sLe^x -coated plate. IC50 values were calculated by fitting binding data to the equation: fraction of maximal binding=IC50 […] using nonlinear least squares analysis software (Origin, Microcal Inc, Northampton, Mass.). InsP6 (dodecasodium salt), InsS6 (hexapotassium salt), myo-inositol 1 monophosphate (cyclohexylammonium salt), and myo-inositol were from Sigma Chemical Company (St. Louis, Mo.). Stock solutions were prepared daily in 0.9% NaCl and sterilized by 0.22 μm filtration. InsP6 solutions were adjusted at pH 7.4 with HCl.
as §1
A general note: ELISA stands for enzyme-linked immunosorbent assay.

Assay [3] concerns the target T3, E-selectin-lg fusion protein (Homo sapiens, UniProt P16581).
T3 construct: Each selectin-lg contains the lectin domain, epidermal growth factor domain, and one (L-selectin-lg), two (P-selectin-lg) or six (E-selectin-lg) complement regulatory repeats; made in house
Description: Competition ELISA: binding of E-selectin-Ig to immobilized BSA-sLe^x.
Source text: as §2, §1

In assay [4] the test system is L-selectin. The following applies: cited from earlier work.
Assay [5] concerns P-selectin. The following applies: cited from earlier work.
Assay [6] has as its system PMN within the peritoneal cavity. The assay can be described thus: Thioglycollate-induced peritoneal inflammation, PMN accumulation. The class given is in vivo, mice (Balb/c). The following applies: mice, 80 μmol/kg in two i.v. injections, 2 experiments.
Another assay has as its system hemoglobin. Particulars: avian erythrocytes; cited from earlier work.
Assay [7] deals with L-selectin. Particulars: cited from earlier work. This is another data set of the same source.
Assay [8] relates to P-selectin. Particulars: cited from earlier work. The source holds these as a separate data set.
[9] abbreviates: chelator concentration above 1 mM.
Where [10] appears, read: up to a concentration of 1 mM in assay buffer.

“Also recorded” adds a separate entry of the source. Where two headings read alike, the source gives them in different places.

With `O=P(O)(O)O[C@@H]1[C@@H](O)[C@@H](O)[C@@H](OP(=O)(O)O)[C@H](OP(=O)(O)O)[C@H]1O` (relative stereo) [D, L-isomer mixture of Ins1,4,6 P3], the IC50 in assay [1] (preliminary competition ELISA, single experiment, read-out: IC50, L-selectin-Ig) stood at 230 ± 90 µM.

Turning to `O=P(O)(O)O[C@@H]1[C@H](OP(=O)(O)O)[C@H](O)[C@@H](O)[C@H](O)[C@H]1OP(=O)(O)O` [1,2,6-triphosphate (IP3), 1,2,6-triphosphate], in the assay with inflammation, the inhibition of inflammation entry was “modestly inhibit inflammation”.

Take `O=C(O)CN(CCN(CC(=O)O)CC(=O)O)CC(=O)O` [EDTA, reference compound]: the “inhibition profile, L-selectin” value in [1] (setting [9]) is listed as “same inhibition profile on all three selectins”. The “blocking of L-selectin with chelator” value in assay [1] (setting [10]) was “no blocking of any selectin up to a concentration of 1 mM”. Moreover, the “inhibition profile, P-selectin” value in [2] (setting [9]) is “same inhibition profile on all three selectins”. The “blocking of P-selectin with chelator” value in [2] (setting [10]) is listed as “no blocking of any selectin up to a concentration of 1 mM”. In addition, in assay [3] (setting [9]), the “inhibition profile, E-selectin” value was “same inhibition profile on all three selectins”. For the same molecule, in [3] (setting [10]), the “blocking of E-selectin with chelator” value is “no blocking of any selectin up to a concentration of 1 mM”. Besides, in the assay with L-selectin [4], the “effect of calcium chelator on L-selectin interaction with sulfatides” value is listed as “largely unaffected”. The “effect of calcium chelator on P-selectin interaction with sulfatides” value in the assay on P-selectin [5] is recorded as “largely unaffected”.

`O=P(O)(O)OC1[C@H](O)[C@H](O)C(O)[C@H](O)[C@H]1O` (some centres unmarked) [InsP1, myo-inositol 1 monophosphate, reference compound]: the “activity against L-selectin” value in [1] (selected assays, in vitro) is “no activity”. Besides, in assay [2] (selected assays, in vitro), the “activity against P-selectin” value is reported as “no activity”.

Regarding `O=P(O)(O)O[C@@H]1[C@@H](OP(=O)(O)O)[C@H](OP(=O)(O)O)[C@H](O)[C@H](OP(=O)(O)O)[C@H]1OP(=O)(O)O` [InsP5, inositol pentakisphosphate], the IC50 is 38 ± 17 µM in assay [1] (selected assays, in vitro, read-out: IC50, blocking activity against L-selectin) and 940 ± 130 µM in assay [2] (selected assays, in vitro, read-out: IC50, blocking activity against P-selectin). Moreover, the “reduced peritoneal influx of PMN (inhibition)” value in [6] is given as 48±6%. Also, the “effect on hemoglobin affinity for oxygen” value in the assay on hemoglobin is “increasing its affinity for oxygen”.

As to `O=P(O)(O)O[C@@H]1[C@@H](O)[C@H](OP(=O)(O)O)[C@@H](OP(=O)(O)O)[C@H](O)[C@@H]1O` [L-isomer of Ins1,4,5 P3], the “inhibition of L-selectin-Ig binding” value in assay [1] (preliminary competition ELISA, up to 700 μM) is “no inhibition at concentrations up to 700 μM”.

Take `CC(=O)N[C@H]1[C@H]([C@H](O)[C@H](O)CO)O[C@@](O[C@H]2[C@@H](O)[C@@H](CO)O[C@@H](O[C@H]3[C@H](O[C@@H]4O[C@@H](C)[C@@H](O)[C@@H](O)[C@@H]4O)[C@@H](NC(C)=O)C(O)O[C@@H]3CO)[C@@H]2O)(C(=O)O)C[C@@H]1O` (some centres unmarked) [sLe^x, Neu5Acα2-3Galβ1-4(Fucα1-3)GIcNAc, reference compound]: the “blocking of L-selectin-Ig binding” value in assay [1] (BSA-sLe^x competition ELISA) is given as “failed to block L-selectin binding at concentrations up to 1 mM”. The molecule further registered a concentration for half-maximal inhibition (IC50) in assay [3] (BSA-sLe^x competition ELISA, solution-phase sLe^x) of 510 ± 60 µM.

With fucoidan, the “L-selectin interaction / dependent adhesion” value in the assay with L-selectin [7] was “L-selectin adhesion can be blocked; also recorded: interact with both P- and L-selectin”. In addition, the “P-selectin interaction / dependent adhesion” value with P-selectin [8] was “interact with both P- and L-selectin”.

As to heparin, the “L-selectin interaction / dependent adhesion” value with L-selectin [7] is “interact with both P- and L-selectin”. The “P-selectin interaction / dependent adhesion” value with P-selectin [8] is “interact with both P- and L-selectin”.

Broadly, the IC50 is the concentration needed to halve the response being measured.

The record behind these values is patent publication US5827837A, “Polyanion anti-inflammatory agents” (priority 1996, dated 1998).
